Results published in patent US20100087623A1, “Method of extracting proteins and peptides from nano pearl powder” (priority 2008, published 2010).
Values joined by “and” are separate entries in the source; they are usually repeats but may differ in a detail not shown here. Equal values may be shown once.

Tested on: tyrosinase (tyramine acid enzyme)
Assay: Inhibition of tyrosinase (tyramine acid enzyme) activity, dopachrome growth
Format: biochemical
Settings: 2 mg/mL or 1 mg/mL, 37° C., pH 6.8
Method: Pearl powder solution is subjected to filter by employing a device called Centriprep YM3. […] In this experiment, effects of tyrosinase activation (i.e., dopachrome growth) caused by each of soluble organic compound extract of nono pearl powder and soluble organic compound extract of micro pearl powder are evaluated. Also, for pearl powder of the same effects of tyrosinase activation caused by organic compounds having a molecular weight more than 5 kDa and by organic compounds having a molecular weight less than 5 kDa are evaluated.
Referring to FIG. 11 and Table 7 again, experiment conditions are concentration of 1 mg/mL, temperature of 37° C., and pH value of 6.8.

Inhibition (%) of tyramine acid enzyme (dopachrome growth) (0 minute): 0 ± 0%
Inhibition (%) of tyramine acid enzyme (dopachrome growth) (5 minute): 36.5 ± 1.9%
Inhibition (%) of tyramine acid enzyme (dopachrome growth) (10 minute): 48.6 ± 0.7%
Inhibition (%) of tyramine acid enzyme (dopachrome growth) (15 minute): 54.3 ± 1.0%
Inhibition (%) of tyramine acid enzyme (dopachrome growth) (30 minute): 53% and 54.7 ± 0.9%
Inhibition (%) of tyramine acid enzyme (dopachrome growth) (45 minute): 37.1 ± 1.3%
Inhibition (%) of tyramine acid enzyme (dopachrome growth) (60 minute): 21% and 21.6 ± 1.9%
SMILES: OC[C@H]1O[C@@H](Oc2ccc(O)cc2)[C@H](O)[C@@H](O)[C@@H]1O [arbutin]
